Data from patent US11439646B2, “Anti-proliferative agents for treating PAH” (Pfizer Inc., priority 2016, dated 2022).

Columns and labels:
rPASMC = assay: EdU cell proliferation assay, rPASMC; type: cell-based; settings: Rattus norvegicus, 5% FBS, N = 6, FIG. 1g, read-out: rPASMC IC50 (nM), inhibition of proliferation
Procedure: (§1) Alternatively, rather than using BrdU, EdU (5-ethynyl-2′-deoxyuridine) can be used. Cells were first pre-incubated with different concentrations of the CDK inhibitor for 30 minutes, and then 5% FBS was added to stimulate cell proliferation. Cells were maintained for 24 h before the proliferation rate was evaluated using EDU Click-iT EdU Alexa Fluor® 647 HCS Assay (Thermofisher Scientific, USA). EdU was added to the medium 16 h before the quantification of EdU incorporation. Proliferation was quantified by scanning the 96-well plates using automated high content imaging platform equipped with appropriate fluorescence microscopic filters for DAPI (4′,6-Diamidino-2-Phenylindole) or Hoechst stain and Cyanine5 dyes as part of the Click-iT assay. Proliferating EdU positive cells detected at Cyanine5 were quantified and normalized to total cell number per well where the total cell number per cell was identified by DAPI or Hoechst signal. The % effect was then calculated:
(§2) The average (avg) amount (amt) of proliferating cells per concentration of CDK inhibitor with FBS present.
(§3) The minimum amount of proliferation (min amt of prolif'n) is based on cell numbers in the wells where FBS is not added and no CDK inhibitor is present.
(§4) The maximum amount of proliferation (max amt of prolif'n) is based on cell numbers in the wells where FBS is added and no CDK inhibitor is present.

rat Su5416/Hx PAH model = assay: Rat SuHx (Su5416/hypoxia)-induced PAH model (hemodynamics, histomorphometry, IHC); type: in vivo
Procedure: SuHx-induced Pulmonary Arterial Hypertension: Sprague-Dawley rats were obtained from Charles River Laboratories (200-300 g; vehicle control, n=5; all other groups, n=10). Rats received Semaxinib dissolved in DMSO on day 0, followed by housing in low (13%) oxygen until day 28. Sildenafil (30 mg/kg/dose; BID), Riociguat (10 mg/kg, QD) or Palbociclib (100 mg/kg; QD) was administered in vehicle (0.5% methylcellulose) from days 7-28. Terminal hemodynamic evaluations and necropsy were conducted on day 28 in a manner similar to the MCT study.
Hemodynamic measurements Su/Hx study: On day 28, animals were anesthetized via intramuscular injection of ketamine/xylazine (80/10 mg/kg). A Millar catheter was inserted into the pulmonary artery and pulmonary pressure and hemodynamics were measured as described by Stringer et al., (1981) Catheterization of the pulmonary artery in the closed-chest rat. J. Appl. Physiol. 51, 1047-1050. Hemodynamic values were calculated using the NOTOCORD-Hem software (NOTOCORD, Inc., Croissy sur Sienne, France) (CorDynamics).
Measurement of RV hypertrophy. After collection of the heart at necropsy, the atria and great vessels were removed. The RV was separated from the LV and S. The wet weights of the RV and LV+S were measured to calculate the Fulton Index.
Tissue preparation. Under anesthesia, the animals were exsanguinated, and the pulmonary circulation flushed with oxygenated (animals from Example 3 [MCT]) or heparizined (animals from Example 4 [Su5416/Hx]) saline. Trachea, lungs, and heart were removed intact from thoracic cavity and placed in ice-cold saline. Right lung lobes were removed, weighed, and immediately flash frozen in liquid nitrogen. A 10 mL syringe filled with fixative (10% NBF) with attached blunt tip needle (20 g) was used to inflate the left lung lobe and the airway was tied off to keep it consistently expanded. The left lung was then immersion fixed in 10% NBF for 48 hrs and then transferred to 70% EtOH for ≤5 days.
Histomorphometric analysis. Three, 3-5 μm thick, transverse sections of the left lung lobe were used for histomorphometric analysis. Overall disease severity scores were determined by light microscopic evaluation of hematoxylin and eosin (H&E)-stained lung sections by a board-certified veterinary pathologist. Scores ranged from 0 (absent), 1 (minimal), 2 (mild), 3 (moderate), 4 (marked) to 5 (severe) and were assigned according to the approximate percentage of the tissue affected by the tissue changes (inflammatory, degenerative, vascular and/or proliferative) characteristic of the PAH model. Average vessel wall thickness was evaluated using lung sections prepared with a modified Verhoeff-van Gieson elastin stain. Image analysis was performed using random field sampling (Visiopharm newCAST) of 10% of tissue area with observer-assisted identification of intra-acinar and pre-acinar vessels and application of a nucleator probe to measure vessel wall thickness. Fully muscularized intra-acinar vessel density was evaluated in a similar manner using dual αSMA/Ki67 IHC-stained sections and observer-assisted counting of ≥70% muscularized (i.e. SMA^+), transversely sectioned, ≤50 μm external diameter, intra-acinar vessels with an identifiable lumen. Vessel-associated Ki67^+ and pRb^+ cells were counted in αSMA/Ki67 IHC-and CD31/pRb IHC-stained lung sections, respectively, using random field sampling of 10% of tissue area and observer-assisted identification of Ki67^+ or pRb^+ cells associated with the walls (i.e. in the intima or media) of vessels 100 μm external diameter.
Immunohistochemistry. Dual α-SMA/Ki67 nuclear antigen: All IHC steps were performed on 3 μm-thick, formalin-fixed, paraffin-embedded (FFPE) sections on Leica Bond Rx automated immunohistochemistry stainer. The instrument was programmed to bake and dewax the slides. […]

human primary PAAFs = assay: BrdU cell proliferation assay, human primary PAAFs; type: cell-based; settings: serum, average of 3, FIG. 1c, read-out: IC50, serum-induced proliferation of human primary PAAFs
Procedure: Cell proliferation assay. Primary PASMCs and PAAFs from normal human subjects (ScienCell Research Laboratories, San Diego, Calif., USA) and rat primary PASMCs (Cell Applications, San Diego, Calif., USA) were plated in CellBIND® 96-well plates in Dulbecco's modification of Eagle's medium (DMEM) containing 5% fetal bovine serum (FBS), and serum-starved for 24 h in DMEM containing 0.1% FBS. Cells were first pre-incubated with different concentrations of palbociclib (in triplicates) for 30 minutes, and then 30 ng/ml PDGF-BB or 5% FBS was added to stimulate cell proliferation. Cells were maintained for 48 h before the proliferation rate was evaluated using the Cell Proliferation ELISA BrdU (bromodeoxyuridine) Luminescence Kit (Roche Diagnostics, Mannheim, Germany). BrdU was added to the medium 16 h before the quantification of BrdU incorporation. This procedure was use to generate data as presented in at least FIGS. 1a, 1b, 1c, and 1d. IC50 values were calculated for any given inhibitor by determining the concentration of compound needed to inhibit 50% of the response applied to the system. IC50 values were derived from the four parameter logistic equation which was fit to the compound concentration response data.

hPAAF = assay: EdU cell proliferation assay, hPAAF; type: cell-based; settings: Homo sapiens, 5% FBS, N = 6, FIG. 1f, read-out: hPAAF IC50 (nM), inhibition of proliferation
Procedure: as §1, §2, §3, §4

[1] = days 7 to 28, score scale 0-5, FIG. 4g

## CC(=O)c1c(C)c2cnc(Nc3ccc(N4CCNCC4)cn3)nc2n(C2CCCC2)c1=O [Palbociclib, 6-acetyl-8-cyclopentyl-5-methyl-2-{[5-(piperazin-1-yl)pyridin-2yl]amino}pyrido[2,3-d]pyrimidin-7(8H)-one]
rPASMC
  IC50: 19 nM
Rat Su5416/Hx PAH model; days 7 to 28
  vessel-associated Ki67+ cells in the pulmonary vasculature (IHC): fully reversed
  vessel-associated pRb+ cells in the pulmonary vasculature (IHC): fully reversed
Rat Su5416/Hx PAH model; days 7 to 28, FIG. 4c
  Fulton Index: significant reduction
Rat Su5416/Hx PAH model; days 7 to 28, FIG. 4e
  muscularized intra-acinar vessel density relative to vehicle/Su5416/Hx group: 0.68 x Su5416/Hx
Rat Su5416/Hx PAH model; days 7 to 28, FIG. 4f
  structural changes in the pulmonary vasculature (histomorphometry): dramatically improved and in some cases fully normalized
Rat Su5416/Hx PAH model; days 7 to 28, FIG. 4j
  heart weight vs vehicle/Su5416/Hx group: significant reduction
Rat Su5416/Hx PAH model; days 7 to 28, FIG. 4d
  average vessel wall thickness, intra-acinar and pre-acinar vessels: significantly reduced
Rat Su5416/Hx PAH model; [1]
  disease severity scores, mean: 0.25
  disease severity scores, range: 0-1.5
Rat Su5416/Hx PAH model; palbociclib 100 mg/kg/day PO QD days 7 to 28
  hemodynamic endpoints / hemodynamic changes: restored hemodynamic endpoints closer to the non-diseased control group
Rat Su5416/Hx PAH model; palbociclib 100 mg/kg/day PO QD days 7 to 28, listed as palbociclib
  hemodynamic endpoints / hemodynamic changes: near-complete suppression
Human primary PAAFs
  IC50: 21.6 nM
hPAAF
  IC50: 0.4 nM
